# In patent US20040253665A1, “Novel peptide-producing enzyme, microbe producing the enzyme and method for dipeptide synthesis using them” (AJINOMOTO CO., INC., priority 2002, published 2004):
# Marks after values point to notes of the source that are not given here. Non-standard residues stand in square brackets, D forms with d. Residues, ends and D or L forms follow the SMILES beside them. No end group written: not given here. *: point of attachment. Tle = CC(C)(C)[C@H](N)C(=O)O; NMeA = CN[C@@H](C)C(=O)O; Boc = CC(C)(C)OC(=O)*; Aib = CC(C)(N)C(=O)O; OtBu = CC(C)(C)O*; tBu = CC(C)(C)*
# Test system: peptide-producing enzyme (Mono S fraction) from Empedobacter brevis strain FERM BP-8113
# Assay: Enzyme substrate specificity (1)-(10), (13), (14)
# Assay type: biochemical
# Settings: for L-Ala-L-Gln produced: carboxy component (label) 100 mM, 200 mM L-glutamine, 2 hours
# Source text: Ester specificity was examined in the case of using L-amino acid ester for the carboxy component. […] The amounts of L-Ala-L-Gln produced in this reaction are shown in Table 4 (HCl represents hydrochloride in Table 4). Peptide production was examined in the case of using L-alanine methyl ester for the carboxy component and using various L-amino acids for the amine component. […] (The “+” mark indicates those peptides for which production was confirmed but which were unable to be quantified due to the absence of a standard, while “tr” indicates a trace amount.) Peptide production was examined in the case of using various types of L-amino acid methyl esters for the carboxy component and using L-glutamine for the amine component. […] Peptide production was examined in the case of using various L-amino acid methyl esters for the carboxy component and various L-amino acids for the amine component. […] (The “tr” indicates a trace amount.) Furthermore, Tween-80 was added to the reaction system to a final concentration of 0.1% in the case of using L-Trp-OMe. (The “+” mark indicates those peptides for which production was confirmed but which were unable to be quantified due to the absence of a standard.) […] (The “tr” indicates a trace amount.) Peptide production was examined using various L-amino acid amides for the carboxy component, and various L-amino acids for the amine component. […] Peptide production was examined in the case of using various L-alanine methyl esters for the carboxy component and C-protected L-amino acids for the amine component. […] Peptide production was examined in the case of using various amino acid methyl esters for the carboxy component and methylamine for the amine component. […] Peptide production was examined in the case of using β-amino acid ester for the carboxy component or β-amino acid for the amine component. […] (The “tr” indicates a trace amount.) Oligopeptide production was examined in the case of using L-amino acid ester for the carboxy component and peptide for the amine component. […] Substrate specificity was additionally assessed using the same enzyme fraction as that used in Example 5. […] (A “+” mark indicates those for which production was confirmed but which were unable to be quantified due to the absence of a standard, while “tr” indicates a trace amount). Substrate specificity with respect to oligopeptide production was assessed using the same enzyme fraction as Example 26. […] (A “+” mark indicates those for which production was confirmed but which were unable to be quantified due to the absence of a standard, while “tr” indicates a trace amount). It should be noted that hydrochlorides were used for all of the carboxy components.
# [1] = β-amino acid ester as carboxy component or β-amino acid as amine component, 100 mM / 150 mM, pH 9.0, 25° C., 3 hours
# [2] = L or D amino acid methyl ester hydrochloride 100 mM, L or D amino acid 150 mM, pH 9.0, 25° C., 3 hours
# [3] = L-amino acid methyl ester hydrochloride 100 mM, L-amino acid 150 mM, pH 9.0, 25° C., 3 hours
# [4] = carboxy component 100 mM, amine component 150 mM, 0.1 unit enzyme, 25° C., reaction time 3 hr
# [5] = carboxy component 100 mM, amine component 150 mM, 0.1 unit enzyme, 25° C., reaction time 2 hr
# [6] = carboxy component 40 mM, amine component 40 mM, 0.1 unit enzyme, 25° C., reaction time 3 hr
# [7] = L-amino acid ester 100 mM, amino acid or peptide amine component 150 mM, pH 9.0, 25° C., 3 hours
# [8] = oligopeptide production, amount of enzyme 1.0 units, pH 9.0, 25° C., 3 hours
compound,measurement,setting,value
CC(N)C(=O)NCCC(=O)O (stereo not drawn) [Ala-β-Ala],Produced peptide,[1],7.7 mM
CC(N)C(=O)NC(CC(=O)O)c1ccccc1 (stereo not drawn) [Ala-β-Phe],Produced peptide,[1],1.4 mM
C[C@@H](N)C(=O)N[C@@H](CCC(N)=O)C(=O)O [D-Ala-L-Gln] (H-[dA]-Gln-OH),Produced peptide,[2],69.3 mM
CSCC[C@@H](N)C(=O)N[C@H](CO)C(=O)O [D-Met-D-Ser] (H-[dM]-[dS]-OH),Produced peptide,[2],2.7 mM
CSCC[C@@H](N)C(=O)N[C@@H](CO)C(=O)O [D-Met-L-Ser] (H-[dM]-Ser-OH),Produced peptide,[2],5.1 mM
N[C@H](CO)C(=O)N[C@H](CO)C(=O)O [D-Ser-D-Ser] (H-[dS]-[dS]-OH),Produced peptide,[2],2.5 mM
N[C@H](CO)C(=O)N[C@@H](CO)C(=O)O [D-Ser-L-Ser] (H-[dS]-Ser-OH),Produced peptide,[2],3.3 mM
C[C@H](O)[C@@H](N)C(=O)N[C@H](CO)C(=O)O [D-Thr-D-Ser] (H-[dT]-[dS]-OH),Produced peptide,[2],1.1 mM
C[C@H](O)[C@@H](N)C(=O)N[C@@H](CO)C(=O)O [D-Thr-L-Ser] (H-[dT]-Ser-OH),Produced peptide,[2],1.0 mM
CC(C)[C@@H](N)C(=O)N[C@H](CO)C(=O)O [D-Val-D-Ser] (H-[dV]-[dS]-OH),Produced peptide,[2],0.5 mM
CC(C)[C@@H](N)C(=O)N[C@@H](CO)C(=O)O [D-Val-L-Ser] (H-[dV]-Ser-OH),Produced peptide,[2],0.6 mM
NCC(=O)N[C@@H](CS)C(=O)O [Gly-L-CySH] (H-Gly-Cys-OH),Produced peptide,[3],45.6 mM
NCC(=O)NCCC(=O)O [Gly-β-Ala],Produced peptide,[1],2.2 mM
NCC(=O)NC(CC(=O)O)c1ccccc1 (stereo not drawn) [Gly-β-Phe],Produced peptide,[1],0.4 mM
CC(C)(N)C(=O)N[C@@H](CCC(N)=O)C(=O)O [H-Aib-H-Gln-OH] (H-[Aib]-Gln-OH),Produced peptide,[4],18.8 mM
CC(C)(N)C(=O)N[C@@H](Cc1ccccc1)C(=O)O [H-Aib-Phe-OH] (H-[Aib]-Phe-OH),Produced peptide,[4],17.2 mM
C[C@H](N)C(=O)N[C@@H](CC(=O)OC(C)(C)C)C(=O)O [H-Ala-Asp(OtBu)-OH] (H-Ala-Asp(OtBu)-OH),Produced peptide,[5],62.6 mM
C[C@H](N)C(=O)N[C@@H](Cc1ccc(Cl)cc1)C(=O)O [H-Ala-Cl-F-Phe-OH],Produced peptide,[6],20.8 mM
C[C@H](N)C(=O)N[C@@H](CCCCNC(=O)OC(C)(C)C)C(=O)O [H-Ala-Lys(Boc)-OH] (H-Ala-Lys(Boc)-OH),Produced peptide,[5],51.0 mM
C[C@H](N)C(=O)N[C@@H](COC(C)(C)C)C(=O)O [H-Ala-Ser(tBu)-OH] (H-Ala-Ser(tBu)-OH),Produced peptide,[5],48.8 mM
C[C@H](N)C(=O)N[C@@H](Cc1ccc(F)cc1)C(=O)O [H-Ala-p-F-Phe-OH],Produced peptide,"carboxy component 50 mM, amine component 50 mM, 0.1 unit enzyme, 25° C., reaction time 3 hr",21.9 mM
C[C@H](N)C(=O)N[C@@H](Cc1ccc([N+](=O)[O-])cc1)C(=O)O [H-Ala-p-NO2-Phe-OH],Produced peptide,[6],27.5 mM
C[C@H](N)C(=O)N[C@H](C(=O)O)C(C)(C)C [H-Ala-t-Leu-OH] (H-Ala-[Tle]-OH),Produced peptide,[4],0.4 mM
CC(C)(C)OC(=O)C[C@H](N)C(=O)N[C@@H](CCC(N)=O)C(=O)O [H-Asp (OtBu)-Gln-OH] (H-Asp(OtBu)-Gln-OH),Produced peptide,[5],0.9 mM
CN[C@@H](C)C(=O)N[C@@H](CCC(N)=O)C(=O)O [H-N-Me-Ala-H-Gln-OH] (H-[NMeA]-Gln-OH),Produced peptide,[4],0.5 mM
NC(=O)CC[C@H](NC(=O)[C@@H](N)Cc1ccc([N+](=O)[O-])cc1)C(=O)O [H-p-NO2-Phe-H-Gln-OH],Produced peptide,[6],1.1 mM
C[C@H](N)C(=O)N[C@H](CCC(N)=O)C(=O)O [L-Ala-D-Gln] (H-Ala-[dQ]-OH),Produced peptide,[2],0.3 mM
CCOC(=O)[C@H](C)N.Cl [L-Alanine ethyl ester.HCl],L-Ala-L-Gln produced,"pH 9.0, 25° C.",91.5 mM
CC(C)OC(=O)[C@H](C)N.Cl [L-Alanine isopropyl ester.HCl],L-Ala-L-Gln produced,"pH 9.0, 25° C.",78.9 mM
"COC(=O)[C@H](C)N.Cl [L-Alanine methyl ester.HCl, L-alanine methyl ester hydrochloride]",L-Ala-L-Gln produced,"pH 9.0, 25° C.",84.3 mM
C[C@H](N)C(=O)OC(C)(C)C.Cl [L-Alanine-t-butyl ester.HCl],L-Ala-L-Gln produced,"pH 9.0, 25° C.",7.5 mM
CSCC[C@H](NC(=O)[C@@H](N)Cc1cnc[nH]1)C(=O)O [L-His-L-Met] (H-His-Met-OH),Produced peptide,[3],6.5 mM
CSCC[C@H](NC(=O)[C@@H](N)CC(C)C)C(=O)O [L-Leu-L-Met] (H-Leu-Met-OH),Produced peptide,[3],12.2 mM
CSCC[C@H](NC(=O)[C@@H](N)CCCCN)C(=O)O [L-Lys-L-Met],Produced peptide,[3],6.8 mM
CSCC[C@H](N)C(=O)N[C@H](CO)C(=O)O [L-Met-D-Ser] (H-Met-[dS]-OH),Produced peptide,[2],1.9 mM
N[C@@H](Cc1ccccc1)C(=O)N[C@@H](CO)C(=O)O [L-Phe-L-Ser] (H-Phe-Ser-OH),Produced peptide,"L-amino acid amide hydrochloride 100 mM as carboxy component, L-amino acid 150 mM, pH 9.0, 25° C., 3 hours",0.6 mM
N[C@@H](CO)C(=O)N[C@H](CO)C(=O)O [L-Ser-D-Ser] (H-Ser-[dS]-OH),Produced peptide,[2],16.2 mM
C[C@@H](O)[C@H](N)C(=O)N[C@H](CO)C(=O)O [L-Thr-D-Ser] (H-Thr-[dS]-OH),Produced peptide,[2],6.9 mM
C[C@@H](O)[C@H](N)C(=O)N[C@@H](CO)C(=O)O [L-Thr-L-Ser] (H-Thr-Ser-OH),Produced peptide,[3],58.2 mM
CSCC[C@H](NC(=O)[C@@H](N)Cc1c[nH]c2ccccc12)C(=O)O [L-Trp-L-Met] (H-Trp-Met-OH),Produced peptide,[3],4.1 mM
CC(C)[C@H](N)C(=O)N[C@H](CO)C(=O)O [L-Val-D-Ser] (H-Val-[dS]-OH),Produced peptide,[2],1.4 mM
NC(=O)C[C@H](N)C(=O)N[C@@H](CCC(=O)O)C(=O)O [LAsn-L-Glu] (H-Asn-Glu-OH),Produced peptide,[3],10.2 mM
C[C@@H](O)[C@H](N)C(=O)NCCC(=O)O [Thr-β-Ala],Produced peptide,[1],3.2 mM
C[C@@H](O)[C@H](N)C(=O)NC(CC(=O)O)c1ccccc1 (stereo partly drawn) [Thr-β-Phe],Produced peptide,[1],1.4 mM
NCCC(=O)N[C@@H](CCC(N)=O)C(=O)O [β-Ala-L-Gln],Produced peptide,[1],0.6 mM
NCCC(=O)NC(CO)C(=O)O [β-Ala-L-Ser],Produced peptide,[1],3.2 mM
NCCC(=O)NCCC(=O)O [β-Ala-β-Ala],Produced peptide,[1],0.2 mM
Gly-Gly-L-Gln,Produced peptide,[7],7.2 mM
Gly-Gly-L-Tyr-L-Ala,Produced peptide,[7],44.2 mM
Gly-Phe-Met,Produced peptide,[8],13.3 mM
L-Ala-L-Ala-L-Ala-L-Ala-L-Ala-L-Ala,Produced peptide (mM),"carboxy component 10 mM, amine component 15 mM, pH 9.0, 25° C., 3 hours",1.4* mM
L-Tyr-Gly-Gly-L-Phe-L-Met,Produced peptide,[8],2.7 mM
[dA]-Gly-Phe,Produced peptide (mM),"oligopeptide production, amount of enzyme 0.1 units, pH 9.0, 25° C., 3 hours",Tr
